# Experimental data from patent publication US10793547B2, “Modulator of the cystic fibrosis transmembrane conductance regulator, pharmaceutical compositions, methods of treatment, and process for making the modulator” (Vertex Pharmaceuticals Incorporated, priority 2016, dated 2020).
# Key:
# human PXR = target: T1, human PXR (Homo sapiens, UniProt O75469); test: PXR assay: PXR mediated CYP3A4 induction in DPX-2 cell line; assay type: cell-based; conditions: DPX-2 cells
# T1 construct: host or cells: DPX-2 cell line (derived from HepG2)
# T1 sequence (O75469 1-434): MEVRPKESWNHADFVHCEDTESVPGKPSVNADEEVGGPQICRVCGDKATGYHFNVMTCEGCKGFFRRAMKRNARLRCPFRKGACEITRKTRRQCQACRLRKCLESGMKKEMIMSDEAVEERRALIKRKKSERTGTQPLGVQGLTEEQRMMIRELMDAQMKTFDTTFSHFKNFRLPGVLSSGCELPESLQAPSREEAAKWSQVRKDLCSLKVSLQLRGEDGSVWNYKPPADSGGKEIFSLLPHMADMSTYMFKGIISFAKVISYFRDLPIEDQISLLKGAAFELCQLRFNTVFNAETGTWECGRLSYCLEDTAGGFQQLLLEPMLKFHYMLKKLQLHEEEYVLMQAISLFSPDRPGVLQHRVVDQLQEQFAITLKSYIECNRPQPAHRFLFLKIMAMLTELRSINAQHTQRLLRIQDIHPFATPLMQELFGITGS
# Procedure: D. Experimental Protocol for PXR Assay
# The propensity for PXR mediated CYP3A4 induction is assessed using the DPX-2 cell line in vitro. This cell line, which has been licensed from Puracyp Inc. was derived from HepG2 cells and has been stably transfected with genes encoding human PXR as well as a modified luciferase reporter linked to the CYP3A4 promoter region and related distal and proximal enhancers.
# The assay is run in 384 well format and each test article is administered in 11 doses ranging from 0.1 to 60 μM. On day 1, DPX-2 cells which have previously been expanded in-house and cryopreserved are thawed and seeded in tissue culture plates. The following day, media is changed and cells are cultured in media containing test article, vehicle control or the positive control compound, the clinically validated CYP3A4 inducer rifampicin. Cells are cultured in the presence of test article for 48 hours and then cell viability is assessed using fluorescence based assay (Cell Titer-Fluor, Promega) with an EnVision Plate Reader (PerkinElmer). Subsequently, CYP3A4 transactivation, which is proportional to luciferase activity, is measured by reading luminescense using the Promega One-Glo reagent system using the same plate reader.
# Data processing within the Genedata software package allows reporting of max fold induction compared to vehicle control, an EC50 value for CYP3A4 inducers and an 11 point-dose response curve.
# F508del-CFTR = target: T2, F508del-CFTR (Homo sapiens, UniProt P13569, DEL508-508); test: Membrane potential optical (FLIPR) assay for F508del-CFTR modulators in NIH 3T3 cells; assay type: cell-based; conditions: NIH 3T3 cells expressing F508del; assay A1; read-out: CFTRdF508 Cor 3T3 FLIPR 384 CFTRdF508 MP 3T3 770 EC50
# T2 construct: expressed in transfected cells
# Description: Membrane Potential Optical Methods for Assaying Properties of F508del-CFTR Modulators
# The assay utilizes fluorescent voltage sensing dyes to measure changes in membrane potential using a fluorescent plate reader (e.g., FLIPR III, Molecular Devices, Inc.) as a readout for increase in functional F508del in NIH 3T3 cells. The driving force for the response is the creation of a chloride ion gradient in conjunction with channel activation and concurrent with compound treatment by a single liquid addition step after the cells have previously been loaded with a voltage sensing dye.
# A1. Identification of F508del-CFTR Modulators
# To identify modulators of F508del, a fluorescence based HTS assay format was developed. This HTS assay utilizes fluorescent voltage sensing dyes to measure changes in membrane potential on the FLIPR III as a measurement for increase in gating (conductance) of F508del NIH 3T3 cells. The driving force for the response is the creation of a chloride ion gradient in conjunction with channel activation and concurrent with compound treatment by a single liquid addition step after the cells have previously been loaded with a voltage sensing dye.
# Bath Solution #1: (in mM) NaCl 160, KCl 4.5, CaCl2 2, MgCl2 1, HEPES 10, pH 7.4 with NaOH, Glucose 10.
# Chloride-free bath solution: Chloride salts in Bath Solution #1 (above) are substituted with gluconate salts.
# NIH3T3 mouse fibroblasts stably expressing F508del were used for optical measurements of membrane potential. The cells were maintained at 37° C. in 5% CO2 and 90% humidity in Dulbecco's modified Eagle's medium supplemented with 2 mM glutamine, 10% fetal bovine serum, 1×NEAA, β-ME, 1× pen/strep, and 25 mM HEPES in 175 cm^2 culture flasks. For all optical assays, the cells were seeded at 12,000 cells/well in 384-well matrigel-coated plates and cultured for 18-24 hrs at 37° C. for the potentiator assay. For the correction assay, the cells were cultured at 37° C. with and without compounds for 18-24 hours.
# Rat hepatocytes = test: Hepatocyte clearance, rat hepatocytes; assay type: in vitro ADME; conditions: percent unchanged
# [1] = MDCK-Wild Type permeability, 96 well + 0.1% BSA; assay type: in vitro ADME; conditions: dog, MDCK, A-B direction, read-out: MDCK-Wild Type-Permeability 96 well + 0.1% BSA Papp compound (A-B)
# T2 sequence (P13569 with tags, fused parts or gaps DEL508-508): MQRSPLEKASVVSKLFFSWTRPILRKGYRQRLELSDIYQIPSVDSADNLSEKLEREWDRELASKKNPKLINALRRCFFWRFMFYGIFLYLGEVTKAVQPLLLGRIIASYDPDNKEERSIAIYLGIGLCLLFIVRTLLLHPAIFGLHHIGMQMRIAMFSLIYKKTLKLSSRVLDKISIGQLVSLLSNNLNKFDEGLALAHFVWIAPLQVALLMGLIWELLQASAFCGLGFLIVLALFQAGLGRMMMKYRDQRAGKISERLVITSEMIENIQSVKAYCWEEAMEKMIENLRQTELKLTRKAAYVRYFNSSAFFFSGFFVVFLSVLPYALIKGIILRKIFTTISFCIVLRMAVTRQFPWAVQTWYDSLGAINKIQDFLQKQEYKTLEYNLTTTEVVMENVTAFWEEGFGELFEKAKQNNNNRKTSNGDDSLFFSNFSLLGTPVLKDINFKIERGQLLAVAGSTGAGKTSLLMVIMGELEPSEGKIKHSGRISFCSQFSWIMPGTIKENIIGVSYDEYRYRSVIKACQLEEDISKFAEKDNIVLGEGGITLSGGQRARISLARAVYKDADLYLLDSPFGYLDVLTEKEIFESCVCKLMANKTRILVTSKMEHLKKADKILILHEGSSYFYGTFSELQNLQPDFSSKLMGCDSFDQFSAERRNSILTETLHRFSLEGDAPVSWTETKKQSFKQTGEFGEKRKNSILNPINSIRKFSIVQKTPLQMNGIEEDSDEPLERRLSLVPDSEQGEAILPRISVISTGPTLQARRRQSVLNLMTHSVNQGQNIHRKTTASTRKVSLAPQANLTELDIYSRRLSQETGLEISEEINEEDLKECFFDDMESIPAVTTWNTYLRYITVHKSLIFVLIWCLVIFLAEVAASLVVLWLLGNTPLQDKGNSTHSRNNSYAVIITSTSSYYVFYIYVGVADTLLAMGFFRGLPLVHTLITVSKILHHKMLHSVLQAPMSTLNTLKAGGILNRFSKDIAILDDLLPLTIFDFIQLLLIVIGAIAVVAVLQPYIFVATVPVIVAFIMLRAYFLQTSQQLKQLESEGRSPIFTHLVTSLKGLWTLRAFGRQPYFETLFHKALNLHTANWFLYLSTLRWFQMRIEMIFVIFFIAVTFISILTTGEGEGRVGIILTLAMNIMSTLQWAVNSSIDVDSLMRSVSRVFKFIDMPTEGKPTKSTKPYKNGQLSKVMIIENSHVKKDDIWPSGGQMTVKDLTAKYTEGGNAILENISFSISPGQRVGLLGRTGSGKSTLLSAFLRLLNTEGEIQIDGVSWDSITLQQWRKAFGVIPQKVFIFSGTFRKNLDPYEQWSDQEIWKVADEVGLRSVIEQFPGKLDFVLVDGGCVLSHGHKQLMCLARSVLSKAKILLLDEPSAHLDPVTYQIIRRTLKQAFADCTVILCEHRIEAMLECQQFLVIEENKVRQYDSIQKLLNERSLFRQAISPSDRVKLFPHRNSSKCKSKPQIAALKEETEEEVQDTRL
SMILES,CYP3A4 Induction-PXR human PXR internal Max % Activity (human PXR),EC50 (F508del-CFTR),Hepatocyte clearance-Rat Rat hepatocytes CL pct_unchanged (Rat hepatocytes),Papp A→B [1]
"Cc1nn(C)cc1S(=O)(=O)NC(=O)c1ccc(-n2ccc(OCC3C[C@@H]4CC[C@H]3C4)n2)nc1N1C[C@@H](C)CC1(C)C (stereo partly drawn) [Compound 50, N-(1,3-dimethylpyrazol-4-yl)sulfonyl-6-[3-[[(1S,4R)-norbornan-2-yl]methoxy]pyrazol-1-yl]-2-[(4S)-2,2,4-trimethylpyrrolidin-1-yl]pyridine-3-carboxamide]",4%,0.08 µM,20%,13 nm/s
"Cc1nn(C)cc1S(=O)(=O)NC(=O)c1ccc(-n2ccc(OCCC(C3CC3)C3CC3)n2)nc1N1C[C@@H](C)CC1(C)C [Compound 38, 6-[3-(3,3-dicyclopropylpropoxy)pyrazol-1-yl]-N-(1,3-dimethylpyrazol-4-yl)sulfonyl-2-[(4S)-2,2,4-trimethylpyrrolidin-1-yl]pyridine-3-carboxamide]",2%,0.11 µM,56%,10 nm/s
"C[C@@H]1CN(c2nc(-n3ccc(OCC(C)(C)C)n3)ccc2C(=O)NS(=O)(=O)c2ccc[nH]c2=O)C(C)(C)C1 [B, reference compound]",3%,0.26 µM,13%,4 nm/s
"Cc1nn(C)cc1S(=O)(=O)NC(=O)c1ccc(-n2ccc(OC(C3CC3)C3CC3)n2)nc1N1C[C@@H](C)CC1(C)C [Compound 48, 6-[3-(Dicyclopropylmethoxy)pyrazol-1-yl]-N-(1,3-dimethylpyrazol-4-yl)sulfonyl-2-[(4S)-2,2,4-trimethylpyrrolidin-1-yl]pyridine-3-carboxamide]",8%,1 µM,,46 nm/s
"Cc1nn(C)cc1S(=O)(=O)NC(=O)c1ccc(-n2ccc(O[C@H]3C[C@@H]4CC[C@H]3C4)n2)nc1N1C[C@@H](C)CC1(C)C [Compound 51, N-(1,3-dimethylpyrazol-4-yl)sulfonyl-6-[3-[(1S,2S,4R)-norbornan-2-yl]oxypyrazol-1-yl]-2-[(4S)-2,2,4-trimethylpyrrolidin-1-yl]pyridine-3-carboxamide]",6%,0.15 µM,29%,29 nm/s
"Cc1nn(C)cc1S(=O)(=O)NC(=O)c1ccc(-n2ccc(OCC(C3CC3)C3CC3)n2)nc1N1C[C@@H](C)CC1(C)C [Compound 32, 6-[3-(2,2-dicyclopropylethoxy)pyrazol-1-yl]-N-(1,3-dimethylpyrazol-4-yl)sulfonyl-2-[(4S)-2,2,4-trimethylpyrrolidin-1-yl]pyridine-3-carboxamide]",5%,0.2 µM,,38 nm/s
"C[C@@H]1CN(c2nc(-n3ccc(OCC4CCC4)n3)ccc2C(=O)NS(=O)(=O)c2cccnc2N)C(C)(C)C1 [D, reference compound]",10%,0.21 µM,19%,
"Cc1c(S(=O)(=O)NC(=O)c2ccc(-n3ccc(OCC4CC45CC5)n3)nc2N2C[C@@H](C)CC2(C)C)cnn1C (stereo partly drawn) [Compound 26, N-(1,5-dimethylpyrazol-4-yl)sulfonyl-6-[3-(spiro[2.2]pentan-2-ylmethoxy)pyrazol-1-yl]-2-[(4S)-2,2,4-trimethylpyrrolidin-1-yl]pyridine-3-carboxamide]",6%,1 µM,,23 nm/s
"CCn1cc(S(=O)(=O)NC(=O)c2ccc(-n3ccc(OCC4(C(F)(F)F)CC4)n3)nc2N2C[C@@H](C)CC2(C)C)cn1 [Compound 7, N-(1-ethylpyrazol-4-yl)sulfonyl-6-[3-[[1-(trifluoromethyl)cyclopropyl]methoxy]pyrazol-1-yl]-2-[(4S)-2,2,4-trimethylpyrrolidin-1-yl]pyridine-3-carboxamide]",4%,0.65 µM,,31 nm/s

# The next lines start with the values.
CYP3A4 Induction-PXR human PXR internal Max % Activity (human PXR),EC50 (F508del-CFTR),Hepatocyte clearance-Rat Rat hepatocytes CL pct_unchanged (Rat hepatocytes),Papp A→B [1],SMILES
6%,0.61 µM,39%,75 nm/s,"Cc1nn(C)cc1S(=O)(=O)NC(=O)c1ccc(-n2ccc(OC3CC3C(F)(F)F)n2)nc1N1C[C@@H](C)CC1(C)C (stereo partly drawn) [Compound 34, N-(1,3-dimethylpyrazol-4-yl)sulfonyl-6-[3-[2-(trifluoromethyl)cyclopropoxy]pyrazol-1-yl]-2-[(4S)-2,2,4-trimethylpyrrolidin-1-yl]pyridine-3-carboxamide]"
5%,0.05 µM,30%,11 nm/s,"Cc1nn(C)cc1S(=O)(=O)NC(=O)c1ccc(-n2ccc(OCC3(C(F)(F)F)CC3)n2)nc1N1CC(C(C)(C)C)CC1(C)C (single isomer, unassigned) [Compound 54, 2-(4-tert-butyl-2,2-dimethyl-pyrrolidin-1-yl)-N-(1,3-dimethylpyrazol-4-yl)sulfonyl-6-[3-[[1-(trifluoromethyl)cyclopropyl]methoxy]pyrazol-1-yl]pyridine-3-carboxamide]"
13%,0.4 µM,10%,39 nm/s,"Cc1nn(C)c(C)c1S(=O)(=O)NC(=O)c1ccc(-n2ccc(OCC3(C(F)(F)F)CC3)n2)nc1N1C[C@@H](C)CC1(C)C [Compound 16, 6-[3-[[1-(trifluoromethyl)cyclopropyl]methoxy]pyrazol-1-yl]-N-(1,3,5-trimethylpyrazol-4-yl)sulfonyl-2-[(4S)-2,2,4-trimethylpyrrolidin-1-yl]pyridine-3-carboxamide]"
7%,0.29 µM,,51 nm/s,"Cc1nn(C)cc1S(=O)(=O)NC(=O)c1ccc(-n2ccc(OCC(C)(C)C(F)(F)F)n2)nc1N1C[C@H](C)CC1(C)C [Compound 37, N-(1,3-Dimethylpyrazol-4-yl)sulfonyl-6-[3-(3,3,3-trifluoro-2,2-dimethyl-propoxy)pyrazol-1-yl]-2-[(4R)-2,2,4-trimethylpyrrolidin-1-yl]pyridine-3-carboxamide]"
1%,0.09 µM,,88 nm/s,"Cc1nn(C)cc1S(=O)(=O)NC(=O)c1ccc(-n2ccc(OCC3(C(F)(F)F)CCC3)n2)nc1N1C[C@@H](C)CC1(C)C [Compound 19, N-(1,3-dimethylpyrazol-4-yl)sulfonyl-6-[3-[[1-(trifluoromethyl)cyclobutyl]methoxy]pyrazol-1-yl]-2-[(4S)-2,2,4-trimethylpyrrolidin-1-yl]pyridine-3-carboxamide]"
